The results in this text go back to the Kinase Knowledgebase extract (Sharma et al. 2016).

The target in this experiment is PIK3CG (human) (UniProt P48736). As to the kind of experiment: Inhibition of PIK3CG Kinase Activity.
Chain of PIK3CG (human) (P48736 whole entry, looked up): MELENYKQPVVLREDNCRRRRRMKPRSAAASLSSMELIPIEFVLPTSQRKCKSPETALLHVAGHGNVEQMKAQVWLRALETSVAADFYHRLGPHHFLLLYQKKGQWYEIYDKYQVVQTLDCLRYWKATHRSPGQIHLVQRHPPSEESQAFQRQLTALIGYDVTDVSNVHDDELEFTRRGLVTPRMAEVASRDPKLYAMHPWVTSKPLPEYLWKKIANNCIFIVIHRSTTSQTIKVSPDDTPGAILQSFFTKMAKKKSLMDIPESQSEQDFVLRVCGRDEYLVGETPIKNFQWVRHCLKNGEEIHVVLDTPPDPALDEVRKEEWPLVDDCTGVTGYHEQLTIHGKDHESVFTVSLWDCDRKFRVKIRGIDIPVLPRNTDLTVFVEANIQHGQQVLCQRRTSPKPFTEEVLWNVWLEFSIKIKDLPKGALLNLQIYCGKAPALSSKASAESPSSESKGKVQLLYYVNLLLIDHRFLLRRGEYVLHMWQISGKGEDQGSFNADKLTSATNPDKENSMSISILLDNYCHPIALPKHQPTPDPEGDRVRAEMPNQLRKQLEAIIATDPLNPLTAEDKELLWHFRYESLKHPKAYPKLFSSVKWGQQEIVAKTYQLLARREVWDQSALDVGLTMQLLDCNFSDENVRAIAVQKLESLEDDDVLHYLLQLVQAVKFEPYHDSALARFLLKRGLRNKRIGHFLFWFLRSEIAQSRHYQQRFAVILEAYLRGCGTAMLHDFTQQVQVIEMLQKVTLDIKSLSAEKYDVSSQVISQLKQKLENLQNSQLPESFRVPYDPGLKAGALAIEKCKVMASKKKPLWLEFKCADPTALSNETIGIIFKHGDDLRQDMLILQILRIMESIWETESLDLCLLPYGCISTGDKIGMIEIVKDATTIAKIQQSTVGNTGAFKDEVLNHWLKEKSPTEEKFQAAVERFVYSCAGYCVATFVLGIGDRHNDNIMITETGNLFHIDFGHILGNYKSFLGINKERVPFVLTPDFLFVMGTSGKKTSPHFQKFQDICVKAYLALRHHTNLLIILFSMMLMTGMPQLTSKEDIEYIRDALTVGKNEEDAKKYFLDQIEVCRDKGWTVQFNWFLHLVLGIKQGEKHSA

Usually Ki stands for a dissociation constant, usually derived from enzyme kinetics or from competition with a known ligand. Higher therefore signals a looser hold on the target. Compound `Cc1cc(-c2cnc(C)c(C(=O)NC(C)C)c2)nc2c1C(=O)N(c1cnn(CC(F)(F)F)c1)C2(C)C` gave a Ki below 100 nM.

`COc1cc(-c2cc(C)c3c(n2)C(C)(C)N(c2cnn(C[C@H](C)O)c2)C3=O)cnc1OC` came in with a Ki below 100 nM.

With `COc1cc(-c2ccc3c(n2)CN(c2ccn[nH]2)C3=O)cnc1OC`, the Ki is below 100 nM.

As for `Cc1ccc(-c2cc(C)c3c(n2)CN(c2cnn(CC#N)c2)C3=O)cn1`, the Ki is below 100 nM.

`CCn1ccc(N2C(=O)c3c(C)cc(-c4cncc(OC(F)F)c4)nc3[C@@H]2C)n1` yielded a Ki below 100 nM.

The compound `Cc1cc(-c2cncc(S(C)(=O)=O)c2)nc2c1C(=O)N(c1cnn(CC(F)(F)F)c1)C2` returned an inhibition constant (Ki) below 100 nM.

On to `CCn1cc(N2Cc3nc(-c4cccc(OC)c4)cc(C)c3C2=O)cn1`, for which the inhibitory constant (Ki) was below 100 nM.

Regarding `COc1ccc(-c2ccc3c(n2)CN(c2cnn(CC#N)c2)C3=O)c(OC)n1`, the inhibition constant Ki is below 100 nM.

On to `Cc1cc(-c2cncc(OC(F)F)c2)nc2c1C(=O)N(c1cn[nH]c1)C2C` (stereo not drawn), for which the Ki was below 100 nM.

As for `Cc1cc(-c2cncc(OCC(F)F)c2)nc2c1C(=O)N(c1cnn(CC(F)F)c1)C2`, the Ki is below 100 nM.

The compound `CCC#CCn1cc(N2Cc3cc(-c4cnc(OC)c(OC)c4)ccc3C2=O)cn1` returned an inhibitory constant (Ki) below 100 nM.

Compound `Cc1cc(-c2cncc(NC(=O)C(C)C)c2)nc2c1C(=O)N(c1cnn(CC(F)(F)F)c1)C2(C)C` had an inhibition constant Ki of 100 to 490 nM.

`COc1cc(-c2ccc3c(c2)CN(c2cnn(CC(C)C)c2)C3=O)cnc1OC` displayed a Ki of 100 to 490 nM.
